Square brackets hold non-standard residues; d marks the D form. Peptide text beside a SMILES is read from it. * marks the point of attachment. Benzoyl(4-tBu) = CC(C)(C)c1ccc(C(=O)*)cc1; Lys(Et2) = CCN(CC)CCCC[C@H](N)C(=O)O
Key:
Format in all cases: toxicity, cell-based
Fibroblast = assay: Incucyte cell viability with human fibroblast; settings: 24 h, 10 µM, compound concentration 10 uM
HEK-293T = assay: Incucyte cell viability with HEK293T; settings: human, 24 h, 10 µM, compound concentration 10 uM
U2OS = assay: Incucyte cell viability with U2OS; settings: human, 24 h, 10 µM, compound concentration 10 uM
Note: unitless GR value; below 1 slowed growth and below 0 cell loss.

## CC(=O)N[C@H](C(=O)N[C@@H](CC(=O)O)C(=O)N[C@H](C(=O)N[C@@H](C)C(=O)N[C@H](C=O)CC(=O)O)C(C)C)C(C)C (Ac-VDVAD-aldehyde)
Fibroblast; replicate number 1
  Growth Rate: 0.52
Fibroblast; replicate number 2
  Growth Rate: 1
HEK-293T; replicate number 1
  Growth Rate: 0.65
HEK-293T; replicate number 2
  Growth Rate: 1
U2OS; replicate number 1
  Growth Rate: 0.65
U2OS; replicate number 2
  Growth Rate: 0.76

## CC(C)(C)OC(=O)Nc1ccc(CNc2nccc(Nc3cc(C(=O)OC(C)(C)C)[nH]n3)n2)cc1
Fibroblast; replicate number 1
  Growth Rate: 1
Fibroblast; replicate number 2
  Growth Rate: 0.07
HEK-293T; replicate number 1
  Growth Rate: -0.38
HEK-293T; replicate number 2
  Growth Rate: -0.24
U2OS; replicate number 1
  Growth Rate: 0.42
U2OS; replicate number 2
  Growth Rate: 0.67

## O=C(NO)c1cccc(C(=O)NCCc2ccccc2)c1
Fibroblast; replicate number 1
  Growth Rate: 1
Fibroblast; replicate number 2
  Growth Rate: -0.07
HEK-293T; replicate number 1
  Growth Rate: 0.83
HEK-293T; replicate number 2
  Growth Rate: 0.99
U2OS; replicate number 1
  Growth Rate: 0.02
U2OS; replicate number 2
  Growth Rate: 0.85

## COc1cc(Oc2ccnc3cc(OC)c(OC)cc23)ccc1NC(=O)NC(C)c1nccs1 (configuration not stated)
Fibroblast; replicate number 1
  Growth Rate: 0.18
Fibroblast; replicate number 2
  Growth Rate: -0.01
HEK-293T; replicate number 1
  Growth Rate: 1
U2OS; replicate number 1
  Growth Rate: 0.56
U2OS; replicate number 2
  Growth Rate: 0.82

## CNC(=O)Cn1cc(-c2ccc3c(c2)[C@H](F)C[C@]32NC(=O)N(CC(=O)N(Cc3ccc(F)cc3)[C@@H](C)C(F)(F)F)C2=O)cn1
Fibroblast; replicate number 1
  Growth Rate: 0.7
Fibroblast; replicate number 2
  Growth Rate: -0.43
HEK-293T; replicate number 1
  Growth Rate: -0.53
HEK-293T; replicate number 2
  Growth Rate: 0.24
U2OS; replicate number 1
  Growth Rate: -0.12
U2OS; replicate number 2
  Growth Rate: 0.63

## CSc1cccc(Nc2ncc3cc(-c4c(Cl)cccc4Cl)c(=O)n(C)c3n2)c1
Fibroblast; replicate number 1
  Growth Rate: -0.25
Fibroblast; replicate number 2
  Growth Rate: -0.52
HEK-293T; replicate number 1
  Growth Rate: -0.41
HEK-293T; replicate number 2
  Growth Rate: 0.24
U2OS; replicate number 1
  Growth Rate: -0.64
U2OS; replicate number 2
  Growth Rate: -0.15

## C[C@H](Nc1cc(Cl)nc2c1cnn2[C@@H]1O[C@H](COP(=O)(O)CP(=O)(O)O)[C@@H](O)[C@H]1O)c1ccccc1F
Fibroblast; replicate number 1
  Growth Rate: 0.88
Fibroblast; replicate number 2
  Growth Rate: 1
HEK-293T; replicate number 1
  Growth Rate: 0.88
HEK-293T; replicate number 2
  Growth Rate: 1
U2OS; replicate number 1
  Growth Rate: 1

## N#Cc1ccc([C@H]2CCCC[C@H]2O)cc1C(F)(F)F
Fibroblast; replicate number 1
  Growth Rate: 0.21
Fibroblast; replicate number 2
  Growth Rate: 1
HEK-293T; replicate number 1
  Growth Rate: 0.83
HEK-293T; replicate number 2
  Growth Rate: 0.95
U2OS; replicate number 1
  Growth Rate: 1
U2OS; replicate number 2
  Growth Rate: 0.84

## CC(=O)N1CCN([C@H]2CCC[C@@H](NC(=O)c3cc4c(F)ccc(C)c4[nH]3)C2)CC1 [EZM-0414]
Fibroblast; replicate number 1
  Growth Rate: 0.85
Fibroblast; replicate number 2
  Growth Rate: 0.56
HEK-293T; replicate number 1
  Growth Rate: 0.77
HEK-293T; replicate number 2
  Growth Rate: 0.94
U2OS; replicate number 1
  Growth Rate: 0.87
U2OS; replicate number 2
  Growth Rate: 0.93

## Cc1cc(-c2ccc3nc(C4CCOCC4)n(CCOC(F)(F)F)c3c2)cn(C)c1=O
Fibroblast; replicate number 1
  Growth Rate: 0.36
Fibroblast; replicate number 2
  Growth Rate: -0.06
HEK-293T; replicate number 1
  Growth Rate: 0.62
HEK-293T; replicate number 2
  Growth Rate: 0.67
U2OS; replicate number 1
  Growth Rate: -0.23
U2OS; replicate number 2
  Growth Rate: 0.68

## CC/C(=C(/CC)c1ccc(O)cc1)c1ccc(O)cc1 [DIETHYLSTILBESTROL]
Fibroblast; replicate number 1
  Growth Rate: 0.45
Fibroblast; replicate number 2
  Growth Rate: 0.22
HEK-293T; replicate number 1
  Growth Rate: 0.72
HEK-293T; replicate number 2
  Growth Rate: 0.87
U2OS; replicate number 1
  Growth Rate: 1
U2OS; replicate number 2
  Growth Rate: 0.74

## Cl.Cl.Nc1ncnc2c1ncn2[C@@H]1O[C@H](C(=O)N2CCN(CC(=O)Nc3cccc4c3CNC4=O)CC2)[C@@H](O)[C@H]1O
Fibroblast; replicate number 1
  Growth Rate: 1
HEK-293T; replicate number 1
  Growth Rate: 0.67
HEK-293T; replicate number 2
  Growth Rate: 1
U2OS; replicate number 1
  Growth Rate: 1
U2OS; replicate number 2
  Growth Rate: 0.84

## O=C([O-])CCNc1cc(N2CCc3ccccc3CC2)nc(-c2cccnc2)n1.[Na+]
Fibroblast; replicate number 1
  Growth Rate: 1
HEK-293T; replicate number 1
  Growth Rate: 0.83
HEK-293T; replicate number 2
  Growth Rate: 0.92
U2OS; replicate number 1
  Growth Rate: 0.55
U2OS; replicate number 2
  Growth Rate: 1

## O=C(NCC1CCOCC1)c1n[nH]cc1NC(=O)c1c(F)cccc1F
Fibroblast; replicate number 1
  Growth Rate: -0.35
Fibroblast; replicate number 2
  Growth Rate: 0.3
HEK-293T; replicate number 1
  Growth Rate: 0.35
HEK-293T; replicate number 2
  Growth Rate: 0.49
U2OS; replicate number 1
  Growth Rate: 0.03
U2OS; replicate number 2
  Growth Rate: 0.42

## CCN(CC)CCCC[C@H](NC(=O)[C@H](CC(C)C)NC(=O)[C@H](C)NC(=O)[C@H](Cc1ccccc1)NC(=O)c1ccc(C(C)(C)C)cc1)C(=O)N[C@@H](CO)C(=O)OC ({Benzoyl(4-tBu)}-FAL[Lys(Et2)]S-OMe)
Fibroblast; replicate number 1
  Growth Rate: 0.92
Fibroblast; replicate number 2
  Growth Rate: 0.71
HEK-293T; replicate number 1
  Growth Rate: 0.81
HEK-293T; replicate number 2
  Growth Rate: 0.89
U2OS; replicate number 1
  Growth Rate: 1

## CCC[C@H]1CNCc2c1[nH]c(=O)c(C#N)c2N1CCC2(CC1)CC2.Cl
Fibroblast; replicate number 1
  Growth Rate: -0.11
Fibroblast; replicate number 2
  Growth Rate: 0.09
HEK-293T; replicate number 1
  Growth Rate: 0.75
HEK-293T; replicate number 2
  Growth Rate: 0.9
U2OS; replicate number 1
  Growth Rate: 0.97
U2OS; replicate number 2
  Growth Rate: 1

## CC(=O)N[C@@H](Cc1ccc(O)cc1)C(=O)N[C@H](C(=O)N[C@@H](C)C(=O)N[C@@H](CC(=O)O)C(=O)CCl)C(C)C
Fibroblast; replicate number 1
  Growth Rate: 0.42
Fibroblast; replicate number 2
  Growth Rate: 1
HEK-293T; replicate number 1
  Growth Rate: 0.82
HEK-293T; replicate number 2
  Growth Rate: 0.89
U2OS; replicate number 1
  Growth Rate: 1

## CC(=O)N[C@@H](Cc1ccc(O)cc1)C(=O)N[C@H](C(=O)N[C@@H](C)C(=O)N[C@H](C=O)CC(=O)O)C(C)C
Fibroblast; replicate number 1
  Growth Rate: 0.86
Fibroblast; replicate number 2
  Growth Rate: 0.09
HEK-293T; replicate number 1
  Growth Rate: 0.6
HEK-293T; replicate number 2
  Growth Rate: 0.86
U2OS; replicate number 1
  Growth Rate: 0.78
U2OS; replicate number 2
  Growth Rate: 0.63

## Nc1ccccc1NC(=O)CCCCCC(=O)Nc1ccccc1
Fibroblast; replicate number 1
  Growth Rate: 1
Fibroblast; replicate number 2
  Growth Rate: -0.07
HEK-293T; replicate number 1
  Growth Rate: 1
U2OS; replicate number 1
  Growth Rate: 0.46
U2OS; replicate number 2
  Growth Rate: 1

## Oc1ccc(-c2c(-c3ccccc3)nn3c(C(F)(F)F)cc(C(F)(F)F)nc23)cc1
Fibroblast; replicate number 1
  Growth Rate: 1
Fibroblast; replicate number 2
  Growth Rate: 0.27
HEK-293T; replicate number 1
  Growth Rate: 1
HEK-293T; replicate number 2
  Growth Rate: 0.97
U2OS; replicate number 1
  Growth Rate: 1

## NC(=O)[C@H]1CCCCc2c1[nH]c1ccc(Cl)cc21
Fibroblast; replicate number 1
  Growth Rate: 1
HEK-293T; replicate number 1
  Growth Rate: 0.84
HEK-293T; replicate number 2
  Growth Rate: 1
U2OS; replicate number 1
  Growth Rate: 0.17
U2OS; replicate number 2
  Growth Rate: 1

## CC(=O)OCCN1C(=O)c2c(C)nc3ccc(S(=O)(=O)N4CCOCC4)cc3c2C1=O
Fibroblast; replicate number 1
  Growth Rate: 0.85
Fibroblast; replicate number 2
  Growth Rate: 1
HEK-293T; replicate number 1
  Growth Rate: 0.92
HEK-293T; replicate number 2
  Growth Rate: 1
U2OS; replicate number 1
  Growth Rate: 0.83
U2OS; replicate number 2
  Growth Rate: 1

## COc1cc2c(NC3CCN(C4CCCCC4)CC3)nc(N3CCCN(C(C)C)CC3)nc2cc1OCCCN1CCCCC1
Fibroblast; replicate number 1
  Growth Rate: 0.42
Fibroblast; replicate number 2
  Growth Rate: 0.22
HEK-293T; replicate number 1
  Growth Rate: -0.52
HEK-293T; replicate number 2
  Growth Rate: -0.39
U2OS; replicate number 1
  Growth Rate: -0.09
U2OS; replicate number 2
  Growth Rate: 0.29

## CCNC(=O)c1noc(-c2cc(C(C)C)c(O)cc2O)c1-c1ccc(CN2CCOCC2)cc1 [LUMINESPIB]
Fibroblast; replicate number 1
  Growth Rate: -0.02
Fibroblast; replicate number 2
  Growth Rate: -0.27
HEK-293T; replicate number 1
  Growth Rate: -0.29
HEK-293T; replicate number 2
  Growth Rate: -0.15
U2OS; replicate number 1
  Growth Rate: -0.21
U2OS; replicate number 2
  Growth Rate: 0

## Nc1nc2cc(CC[C@H]3C[C@@H](n4ccc5c(N)ncnc54)[C@H](O)[C@@H]3O)ccc2cc1Br [ONAMETOSTAT]
Fibroblast; replicate number 1
  Growth Rate: 0.43
Fibroblast; replicate number 2
  Growth Rate: 0.06
HEK-293T; replicate number 1
  Growth Rate: -0.14
HEK-293T; replicate number 2
  Growth Rate: -0.01
U2OS; replicate number 1
  Growth Rate: 0.19
U2OS; replicate number 2
  Growth Rate: 1

## O=C(Nc1c[nH]nc1C(=O)NC1CCNCC1)c1cc(F)cc(F)c1
Fibroblast; replicate number 1
  Growth Rate: -0.45
Fibroblast; replicate number 2
  Growth Rate: -0.55
HEK-293T; replicate number 1
  Growth Rate: 0.15
HEK-293T; replicate number 2
  Growth Rate: 0.14
U2OS; replicate number 1
  Growth Rate: -0.13
U2OS; replicate number 2
  Growth Rate: 0.19

## CCCn1/c(=N/C(=O)c2cccc(C(N)=O)c2)[nH]c2ccccc21
Fibroblast; replicate number 1
  Growth Rate: 1
HEK-293T; replicate number 1
  Growth Rate: 0.77
HEK-293T; replicate number 2
  Growth Rate: 0.9
U2OS; replicate number 1
  Growth Rate: 1
U2OS; replicate number 2
  Growth Rate: 0.99
